Measured values: PubChem BioAssay AID2060613 (Molecular Pharmacology Branch, DTP, NCI, 2025)

Tested on: 233499-124-R-J3-PDC complex spheroid viability
Assay: Anticancer human tumor 233499-124-R-J3-PDC patient-derived colon adenocarcinoma cell line growth inhibition [CLK]
Settings: for IC50: curve of first compound; for viability, T/C: stronger effect = lower value
Text: A high-throughput screen of multi-cell type tumor spheroids was designed to identify active combinations of […] and targeted small molecules. Complex spheroids include a stromal component modeled by human endothelial cells (HUVEC) and fibroblasts modeled by human mesenchymal stem cells (MSCs). The concentration ranges selected for each drug and investigational agent were based upon clinically achievable concentrations if the clinical Cmax of the agent was known.
Compounds. The drugs and investigational agents: cirtuvivint (SM08502; NSC835563), CC-671 (NSC850746), vemurafenib (NSC761431), tapotoclax (NSC804041), sotorasib (NSC818433), adagrasib (NSC831453), MRTX-1133 (NSC836407), BAY2416964 (NSC825713), copanlisib (NSC816437), inavolisib (NSC800729), abemaciclib (NSC768073), osimertinib (NSC779217), entinostat (NSC756642), eltanexor (KPT-8602, NSC794443), venetoclax (NSC766270), ceralasertib (NSC777638), bortezomib (NSC756655), olaparib (NSC753686), talazoparib (NSC767125), alisertib (NSC759677), peposertib (NSC802822), gemcitabine (NSC613327), 5-fluorouracil (NSC19893), SN-38 (NSC673596), oxaliplatin (NSC266046), paclitaxel (NSC125973), and doxorubicin (NSC123127), were obtained from the National Cancer Institute (NCI) Developmental Therapeutics Program Chemical Repository. The FDA-approved anticancer drug set is available from the Developmental Therapeutics Program at https://dtp.cancer.gov/organization/dscb/obtaining/available plates.htm. […] The stock solutions were prepared in dimethyl sulfoxide (DMSO, Sigma-Aldrich, St. Louis, MO, cat. D2650), except for the platinum complexes which were prepared in saline (Quality Biological, Gaithersburg, MD, cat. 114-055-101), at 800-fold the tested concentration and stored at -70 degrees C prior to their use. All drugs and investigational agents were tested over a range starting from a high concentration at or near the clinical Cmax and decreasing in half-log increments. If the clinical Cmax for an agent had not been determined, the highest concentration tested was 10 microM.
Cell Culture. All cells were maintained in an incubator at 37 degrees C and 5% CO2 with 95% humidity. The PDC lines were cultured according to standard operating procedures established by the NCI PDMR. Briefly, all PDCs were thawed and cultured in Matrigel-coated flasks prepared with a working solution of 1X Ham's F-12 nutrient mix, without supplementation (Invitrogen, Waltham, MA, cat. 11765054), 100 U/mL penicillin-streptomycin (Invitrogen, cat. 15140122), and 2.5% Matrigel (Corning Inc., Corning, NY, cat. 354248) for the first three passages. The 947758-054-R-J2-PDC line was cultured in 6B/Colon 1A media, which includes advanced DMEM/F-12 (Thermo Fisher Scientific, cat. 12634028), 10 mM HEPES (Thermo Fisher Scientific, cat. 15630080), 1X GlutaMAX supplement (Thermo Fisher Scientific, cat. 35050061), 0.1 mg/mL primocin (InvivoGen, cat. ant-pm-2), 10% defined fetal bovine serum, heat inactivated (HyClone Laboratories Inc., cat. SH30070.03HI), 1.25 mM N-Acetyl-L-cysteine (Sigma-Aldrich, cat. A9165), 10 mM nicotinamide (Sigma-Aldrich, cat. N0636), 1X B-27 supplement (Thermo Fisher Scientific, cat. 17504044), 1X N-2 supplement (Thermo Fisher Scientific, cat. 17502048), and 10 microM Y-27632 dihydrochloride (Tocris Bioscience, cat. 1254). The 876862-298-R-J1-PDC was cultured in 6E media, which includes all 6B/Colon 1A media components plus 50% L-WRN conditioned media (ATCC, cat. CRL-3276), 50 ng/mL recombinant human EGF recombinant protein (hEGF; Thermo Fisher Scientific, cat. PHG0311), 10 ng/mL recombinant human fibroblast growth factor 10 (hGFG-10; PeproTech, cat. 100-26), 1 ng/mL recombinant human fibroblast growth factor 2 (hFGF-2; PeproTech, cat. 100-18B), and 1 µM prostaglandin E2 (PGE2; Tocris, cat. 2296). The 227483-062-R1-J1-PDC line was cultured in Panc media, containing all 6E components except hFGF-2, with the addition of 500 nM SB-431542 (Selleckchem, cat. S1067) and 10 nM gastrin (Tocris, cat. 3006). […]

[1] = second compound 0.0316 µM, first compound 0.0316 µM
[2] = second compound 0.0316 µM, first compound 0.1 µM
[3] = second compound 0.0316 µM, first compound 0.316 µM
[4] = second compound 0.0316 µM, first compound 1 µM
[5] = second compound 0.1 µM, first compound 0.0316 µM
[6] = second compound 0.1 µM, first compound 0.1 µM
[7] = second compound 0.1 µM, first compound 0.316 µM
[8] = second compound 0.1 µM, first compound 1 µM
[9] = second compound 0.316 µM, first compound 0.0316 µM
[10] = second compound 0.316 µM, first compound 0.1 µM
[11] = second compound 0.316 µM, first compound 0.316 µM
[12] = second compound 0.316 µM, first compound 1 µM
[13] = second compound 1 µM, first compound 0.0316 µM
[14] = second compound 1 µM, first compound 0.1 µM
[15] = second compound 1 µM, first compound 0.316 µM
[16] = second compound 1 µM, first compound 1 µM
[17] = second compound 3.16 µM, first compound 0.0316 µM
[18] = second compound 3.16 µM, first compound 0.1 µM
[19] = second compound 3.16 µM, first compound 0.316 µM
[20] = second compound 3.16 µM, first compound 1 µM
[21] = second compound 10 µM, first compound 0.0316 µM
[22] = second compound 10 µM, first compound 0.1 µM
[23] = second compound 10 µM, first compound 0.316 µM
[24] = second compound 10 µM, first compound 1 µM
[25] = second compound 0.0316 µM, first compound 0.00316 µM
[26] = second compound 0.0316 µM, first compound 0.01 µM
[27] = second compound 0.1 µM, first compound 0.00316 µM
[28] = second compound 0.1 µM, first compound 0.01 µM
[29] = second compound 0.316 µM, first compound 0.00316 µM
[30] = second compound 0.316 µM, first compound 0.01 µM
[31] = second compound 1 µM, first compound 0.00316 µM
[32] = second compound 1 µM, first compound 0.01 µM
[33] = second compound 3.16 µM, first compound 0.00316 µM
[34] = second compound 3.16 µM, first compound 0.01 µM
[35] = second compound 10 µM, first compound 0.00316 µM
[36] = second compound 10 µM, first compound 0.01 µM
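Further: spheroids exposed to the drug combinations for seven days.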
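Wherever viability, T/C is given: percent viability relative to DMSO vehicle control wells taken as 100%.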

COc1ccc([C@@H](O)c2cc(-c3ncnc4cc(N5CCOCC5)ccc34)c(F)cc2Cl)nn1 + CN1CCN(c2cc(C(=O)Nc3cc4cc(-c5cnn(C)c5)ccc4cn3)ccn2)CC1 showed an IC50 (second compound 0.0316 µM) greater than 10000 nM, an IC50 (second compound 0.1 µM) of 9830 nM and an IC50 (second compound 0.316 µM) of 8500 nM. It also gave an IC50 (second compound 1 µM) of less than 31.6 nM, an IC50 (second compound 3.16 µM) of less than 31.6 nM and an IC50 (second compound 10 µM) of less than 31.6 nM. It also gave a viability, T/C [1] of 101%, a viability, T/C [2] of 99.3% and a viability, T/C [3] of 102%. It also gave a viability, T/C [4] of 105%, a viability, T/C (second compound 0.0316 µM, first compound 3.16 µM) of 83% and a viability, T/C (second compound 0.0316 µM, first compound 10 µM) of 56.7%. For the same compound, the viability, T/C [5] was 98.7%, the viability, T/C [6] was 95% and the viability, T/C [7] was 105%. For the same compound, the viability, T/C [8] was 93.7%, the viability, T/C (second compound 0.1 µM, first compound 3.16 µM) was 78.9% and the viability, T/C (second compound 0.1 µM, first compound 10 µM) was 49.5%. The viability, T/C [9] was 80.5%, the viability, T/C [10] was 92.5% and the viability, T/C [11] was 96%. The viability, T/C [12] was 88.3%, the viability, T/C (second compound 0.316 µM, first compound 3.16 µM) was 87.7% and the viability, T/C (second compound 0.316 µM, first compound 10 µM) was 43.8%. The viability, T/C [13] was 0.59%, the viability, T/C [14] was 0.54% and the viability, T/C [15] was 0.4%. For the same compound, the viability, T/C [16] was 0.92%, the viability, T/C (second compound 1 µM, first compound 3.16 µM) was 0.89% and the viability, T/C (second compound 1 µM, first compound 10 µM) was 0.79%. For the same compound, the viability, T/C [17] was 0.54%, the viability, T/C [18] was 0.7% and the viability, T/C [19] was 0.68%. It also gave a viability, T/C [20] of 0.83%, a viability, T/C (second compound 3.16 µM, first compound 3.16 µM) of 0.94% and a viability, T/C (second compound 3.16 µM, first compound 10 µM) of 1.93%. For the same compound, the viability, T/C [21] was 0.36%, the viability, T/C [22] was 0.41% and the viability, T/C [23] was 0.43%. It also gave a viability, T/C [24] of 0.46%, a viability, T/C (second compound 10 µM, first compound 3.16 µM) of 0.73% and a viability, T/C (second compound 10 µM, first compound 10 µM) of 1.14%.
With CCc1c2c(nc3ccc(O)cc13)-c1cc3c(c(=O)n1C2)COC(=O)[C@]3(O)CC + CNC(=O)c1ccc(Nc2nc(OC3CCCC3)c3c(-c4ccc5nc(C)oc5c4)c[nH]c3n2)c(OC)c1 the IC50 (second compound 0.0316 µM) was 114 nM, the IC50 (second compound 0.1 µM) was 34.5 nM and the IC50 (second compound 0.316 µM) was 15.8 nM. For the same compound, the IC50 (second compound 1 µM) was 15.2 nM, the IC50 (second compound 3.16 µM) was 4.68 nM and the IC50 (second compound 10 µM) was less than 3.16 nM. For the same compound, the viability, T/C [25] was 76%, the viability, T/C [26] was 56.8% and the viability, T/C [1] was 55%. The viability, T/C [2] was 61.8%, the viability, T/C [3] was 34.7% and the viability, T/C [4] was 18.3%. For the same compound, the viability, T/C [27] was 57.5%, the viability, T/C [28] was 53.8% and the viability, T/C [5] was 47.3%. The viability, T/C [6] was 46.6%, the viability, T/C [7] was 31.1% and the viability, T/C [8] was 11.6%. For the same compound, the viability, T/C [29] was 65.5%, the viability, T/C [30] was 50% and the viability, T/C [9] was 38.4%. For the same compound, the viability, T/C [10] was 45.1%, the viability, T/C [11] was 19.6% and the viability, T/C [12] was 11.3%. It also gave a viability, T/C [31] of 63%, a viability, T/C [32] of 49.8% and a viability, T/C [13] of 40.2%. For the same compound, the viability, T/C [14] was 53.6%, the viability, T/C [15] was 12.3% and the viability, T/C [16] was 5.66%. It also gave a viability, T/C [33] of 50.9%, a viability, T/C [34] of 48.6% and a viability, T/C [17] of 25.6%. The viability, T/C [18] was 18%, the viability, T/C [19] was 6.64% and the viability, T/C [20] was 5.12%. The viability, T/C [35] was 51%, the viability, T/C [36] was 32.3% and the viability, T/C [21] was 35.1%. It also gave a viability, T/C [22] of 17.8%, a viability, T/C [23] of 8.94% and a viability, T/C [24] of 2.94%.
For CCc1c2c(nc3ccc(O)cc13)-c1cc3c(c(=O)n1C2)COC(=O)[C@]3(O)CC + CN1CCN(c2cc(C(=O)Nc3cc4cc(-c5cnn(C)c5)ccc4cn3)ccn2)CC1, the IC50 (second compound 0.0316 µM) was 601 nM, the IC50 (second compound 0.1 µM) was 463 nM and the IC50 (second compound 0.316 µM) was 81.4 nM. It also gave an IC50 (second compound 1 µM) of less than 3.16 nM, an IC50 (second compound 3.16 µM) of less than 3.16 nM and an IC50 (second compound 10 µM) of less than 3.16 nM. For the same compound, the viability, T/C [25] was 95.4%, the viability, T/C [26] was 65.8% and the viability, T/C [1] was 81.8%. For the same compound, the viability, T/C [2] was 87.3%, the viability, T/C [3] was 60.5% and the viability, T/C [4] was 41.7%. It also gave a viability, T/C [27] of 85.6%, a viability, T/C [28] of 82.5% and a viability, T/C [5] of 88%. It also gave a viability, T/C [6] of 88.1%, a viability, T/C [7] of 60.7% and a viability, T/C [8] of 28.4%. It also gave a viability, T/C [29] of 88%, a viability, T/C [30] of 80.9% and a viability, T/C [9] of 58.5%. For the same compound, the viability, T/C [10] was 58.5%, the viability, T/C [11] was 14.1% and the viability, T/C [12] was 9.37%. For the same compound, the viability, T/C [31] was 1.6%, the viability, T/C [32] was 0.5% and the viability, T/C [13] was 0.39%. The viability, T/C [14] was 0.38%, the viability, T/C [15] was 0.35% and the viability, T/C [16] was 0.47%. For the same compound, the viability, T/C [33] was 0.46%, the viability, T/C [34] was 0.5% and the viability, T/C [17] was 0.59%. The viability, T/C [18] was 0.52%, the viability, T/C [19] was 0.63% and the viability, T/C [20] was 0.55%. For the same compound, the viability, T/C [35] was 0.36%, the viability, T/C [36] was 0.33% and the viability, T/C [21] was 0.32%. The viability, T/C [22] was 0.37%, the viability, T/C [23] was 0.42% and the viability, T/C [24] was 0.3%.
